Type in all cases: in vivo, mouse
The test system of assay [1] is MRP2. The assay is described as follows: Hepatic expression of MRP2 (Northern blot). Conditions: 14 days. The procedure: (§1) Expression of Specific Bile Salts (Ntcp, Bsep), Phospholipid (MDR2) and Organic Anions or Glutathione (MRP2); And Determination of Glutathione Synthesis (Gluthamylcystein-Synthetase (GGCS)).
(§2) Total RNA extraction. 80 mg hepatic tissue frozen at −70° C. was homogenized in 800 μl solution D, following the method described by Chomczynski and Sacchi, 1987. The RNA concentration was calculated by measuring the absorbance at 260 nm and its purity by the ratio OD260/OD280. The samples are stored at −20° C. RNA electrophoresis. 10 μg of total RNA are dried under gaseous N2 or vacuum for 10 minutes. 10 μl loading buffer were added, and the samples heated to 65° C., loaded into a denaturing 1% agarose/formaldehyde gel and run at 100 volts for 4 hours. The RNA integrity was determined by the clear visualization of the 28 S and 18 S ribosomal RNAs (FIG. 8).
(§3) Northern Blot and hybridization with radioactive probes. The gel with the RNA samples is washed with DEPC H2O for 10 minutes to eliminate formaldehyde and then incubated for 20 minutes with 50 mM NaOH for partial RNA hydrolysis. After a 10 minute wash with DEPC H2O to eliminate NaOH, the samples are transferred from the gel to Nylon membranes (Hybond-N, Amersham Pharmacia) over night by a capillary system. […]
(§4) Probe labeling by “de novo synthesis”. […] The percentage of incorporated radioactivity into the probe was always over 60%. […]

For assay [2], the system named is Bsep. The assay is described as follows: Hepatic expression of bile salts transporter Bsep (Western blot).
Text: as §1
Western Blot analysis. We evaluated protein expression levels of the bile salts transporters Ntcp (sinusoidal pole) and Bsep (cannicular pole) by Western blotting in total liver membranes or liver plasma membranes from mice treated with the different diets. Total membranes were obtained from liver fragments homogenized in Tris-HCl pH 7.5, MgCl2 and sucrose. The homogenates were centrifuged at 1,000 g to separate nuclei, and the supernatants were then centrifuged at 100,000 g. The pellet, containing the total membranes, was resuspended in the buffer described above and proteins were quantified by the Bradford method. Aliquots containing 50 μg protein were separated by SDS-PAGE and transfer to nitrocellulose. The membranes were incubated in buffer TBS-T (Tris-HCl pH 7.5, NaCl and Tween-20), milk 5% w/v plus the antibodies to evaluate the different proteins (Bsep, Ntcp). The secondary antibodies were IgG anti rabbit or anti mouse coupled to peroxidase. The protein signals were detected by the ECL method.

In assay [3] the test system is C57BL/6J mice. The assay is described as follows: Determination of hepatic cholesterol, protocol #1. Conditions: 14 days. Here is the method: Surgery and sample harvest. The groups were maintained for 14 days (protocol #1) or 30 days (protocol #2) in the different experimental conditions. During the last three days of the protocols, 24 h depositions were collected from the different groups (pool) to determine the fecal excretion of neutral sterols (cholesterol) and acidic sterols (bile salts). At the end of the time established in the protocols, the mice were anesthetized (between 08:00-10:00 AM) with an intraperitoneal pentobarbital injection in doses of 4.5 mg per 100 gr body weight (Amigo et al., 2000) and subjected to surgery. Standardized surgery consists in an extended […] and visualization of abdominal organs, including liver, biliary tree and gallbladder. First, we performed a resection of the gallbladder (cholecystectomy), with the cystic duct previously ligated (Amigo et al., 2002; Amigo et al., 2000; Amigo et al., 2003b). The gallbladder is removed and visually inspected to determine the presence of gallstones. Then, the gallbladder bile is extracted to analyze the presence of cholesterol crystals in the fresh samples under the microscope with polarized light (20×). Aliquots are stored at −20° C. for subsequent chemical analysis. Afterwards, the common biliary duct is cannulated (biliary fistula) with a P-10 polyethylene cannula to collect bile during 15 minutes, determine bile flow by gravimetry (1 g bile=1 ml; bile flow is expressed as μl/min/g of mouse liver) and for posterior chemical analysis of biliary lipids and glutathione, as specified later. […] Then, the liver is removed, weighted, frozen in liquid nitrogen and stored at −80 for subsequent analyses. The plasma is separated by centrifugation at 1,500 rpm and stored at −80° C. for later analysis. The animal protocols were approved by our institution Ethics Committee and the animals were treated according to international care rules for experimental animals.
Determination of hepatic cholesterol. The hepatic cholesterol content is quantified from hepatic tissue (50 mg) that is homogenized in chloroform/methanol 2:1. The homogenate is incubated at 50° C. for 30 minutes, and then distilled H2O is added to separate the phases. The mix is vortexed and incubated at 4° C. for two hours and centrifuged at 1,000 rpm for 20 minutes. The lower phase (hydrophobic-chloroform) is removed and dried under gaseous nitrogen. The lipids on the tube wall are resuspended in chloroform plus Triton X-100 0.5% v/v. Four aliquots are taken and dried at room temperature. Total cholesterol content was measured to half of the tubes by the enzymatic method described earlier for biliary cholesterol. To the other half, free cholesterol was measured in buffer (Tris-HCl pH 7.6, Triton X-100, 0.2% phenol, aminoantipyrine) plus the enzymes cholesterol oxidase and peroxidase. The samples are incubated and quantified in the same way described for total cholesterol. The cholesterol ester content for each sample is calculated as the difference between total cholesterol and free cholesterol. The values obtained in each case are given as mg cholesterol/g liver (Folch et al., 1957).

Assay [4] relates to GGCS. The assay is described as follows: Hepatic expression of gamma-gluthamylcystein-synthetase (Northern blot). The settings on record: 14 days. The procedure: as §1, §2, §3, §4

SMILES strings stand for the structures. Marks after values point to notes of the source that are not given here.

Regarding `O=C1[C@H](CC[C@H](O)c2ccc(F)cc2)[C@@H](c2ccc(O)cc2)N1c1ccc(F)cc1` [Ezetimibe, (−)-1-(4-fluorophenyl)-(3R)-[3-(4-fluorophenyl)-(.S)-hydroxypropyl]-(4S)-(4-hydroxyphenyl)-2-azetidinone], the “hepatic expression of MRP2, lithogenic diet plus Ezetimibe vs lithogenic diet” value in assay [1] is given as “no significant differences”. The “hepatic expression of Bsep, lithogenic diet plus Ezetimibe vs lithogenic diet” value in assay [2] (14 days) was “no significant differences”. Also, in assay [2] (FIG. 6 A, on both diets), the “Bsep hepatic protein expression level with Ezetimibe” value was “does not show significant changes”. Moreover, in assay [3] (Chow + Ezetimibe), the “Hepatic Cholesterol Esterified” value worked out at 0.34 ± 0.16 mg/mL, the “Hepatic Cholesterol Free” value was determined as 1.91 ± 0.65 mg/mL and the “Hepatic Cholesterol Total” value amounted to 2.26 ± 0.59 mg/mL. In addition, in assay [3] (Lithogenic + Ezetimibe), the “Hepatic Cholesterol Esterified” value was 1.31 ± 0.99^& mg/ml, the “Hepatic Cholesterol Free” value came out at 2.59 ± 0.24 mg/mL and the “Hepatic Cholesterol Total” value was 3.91 ± 1.05*^& mg/ml. In assay [3] (control diet), the “hepatic cholesterol content smaller with Ezetimibe than with water” value amounted to 20%. In addition, in assay [3] (lithogenic diet plus Ezetimibe, 360% on lithogenic diet without Ezetimibe), the “increment of total hepatic cholesterol content” value turned out to be 38%. Besides, the “hepatic expression of GGCS, lithogenic diet plus Ezetimibe vs lithogenic diet” value in assay [4] was “no significant differences”.

The values are drawn from patent US8361999B2, “Methods of treating cholesterol gallstone disease with ezetimibe” (Pontificia Universidad Catolica de Chile, priority 2005, dated 2013).
